Data as given in publication PMC6273168, “Synthesis and Biological Evaluation of Novel 4-Morpholino-7,8-dihydro-5H-thiopyrano[4,3-d]pyrimidine Derivatives Bearing Phenylpyridine/ Phenylpyrimidine-Carboxamides” (Molecules, 2016).
Values belong to the molecule of their own block, whether it stands above or below them.

What was measured:
[1] = tested on: A549 (human lung cancer) cell line; experiment: MTT cell proliferation (cytotoxicity) assay, A549; format: cell-based; conditions: average of two separate determinations
Experimental: (§1) Taking GDC-0941 as reference compound, the target compounds […], 12a–j, 13a–g and 14a–g ere evaluated for the cytotoxicity against the three cancer cell lines A549, PC-3 and MCF-7 usg 3-(4,5-dimethylthiazolyl-2)-2,5-diphenyltetrazolium bromide (MTT) cell proliferation assays. In addition, one selected compounds 12h was fher evaluated for PI3Kα kinase inhibitory activity. The results, expressed as IC50 values or inhibitory rate, are sumrized in Table 1, Table 2 and Table 3.
(§2) The in vitro cytotoxic activities of all the compounds 11a–11j, 12a–12j, 13a–13g and 14a–14g was evaluated with A549, PC-3 and MCF-7 cell lines by the standard MTT assay, with GDC-0941 as positive control. The cancer cell lines were cultured in minimum essential medium (MEM) supplement with 10% fetal bovine serum (FBS). Approximately 4 × 10^3 cells, suspended in MEM medium, were plated onto each well of a 96-well plate and incubated in 5% CO2 at 37 °C for 24 h. The test compounds at indicated final concentrations were added to the culture medium and the cell cultures were continued for 72 h. Fresh MTT was added to each well at a terminal concentration of […] and incubated with cells at 37 °C for 4 h. The formazan crystals were dissolved in 100 µL DMSO each well, and the absorbency at 492 nm (for absorbance of MTT formazan) and 630 nm (for the reference wavelength) was measured with an ELISA reader. All of the compounds were tested three times in each of the cell lines. The results expressed as inhibition rates or IC50 (half-maximal inhibitory concentration) were the averages of two determinations and calculated by using the Bacus Laboratories Inc. Slide Scanner (Bliss) software (the Bacus Laboratories Inc. Slide Scanner (BLISS) system, Lombard, IL, USA).

[2] = tested on: PC-3 (human prostatic cancer) cell line; experiment: MTT cell proliferation (cytotoxicity) assay, PC-3; format: cell-based; conditions: 72 h, average of two separate determinations
Experimental: as §1, §2

[3] = tested on: MCF-7 (human breast cancer) cell line; experiment: MTT cell proliferation (cytotoxicity) assay, MCF-7; format: cell-based; conditions: average of two separate determinations
Experimental: as §1, §2

[4] = Homo sapiens, A549, 72 h, Table 2
[5] = Homo sapiens, MCF7, 72 h, Table 2
[6] = Homo sapiens, A549, 72 h, Table 1
[7] = Homo sapiens, MCF7, 72 h, Table 1

melting point: > 300 °C
Molecule: O=C(Nc1ccc(-c2nc3c(c(N4CCOCC4)n2)CS(=O)(=O)CC3)cc1)c1cc(-c2ccc(F)cc2)ncn1 [Compound 14d]
IC50 [1, 4]: > 100 µM
IC50 ([2]; Homo sapiens, Table 2): > 100 µM
IC50 [3, 5]: > 100 µM

Molecule: N-(4-(4-Morpholino-7,8-dihydro-5H-thiopyrano[4,3-d]pyrimidin-2-yl)phenyl)-6-(p-tolyl)pyrimidine-4-formamide [Compound 13a]
IC50 ([1]; 72 h, Table 2): > 100 µM
IC50 ([2]; Table 2): > 100 µM
IC50 ([3]; 72 h, Table 2): > 100 µM

melting point: 281.5 to 283.8 °C
Molecule: O=C(Nc1ccc(-c2nc3c(c(N4CCOCC4)n2)CS(=O)(=O)CC3)cc1)c1cc(-c2cccc(F)c2)ccn1 [Compound 12b, N-(4-(4-Morpholino-7,8-dihydro-6,6-dioxide-5H-thiopyrano[4,3-d]pyrimidin-2-yl)phenyl)-4-(3-fluoro-phenyl) pyridinecarboxamide]

Molecule: N-(4-(4-Morpholino-7,8-dihydro-5H-thiopyrano[4,3-d]pyrimidin-2-yl)phenyl)-6-phenylpyridine-4-carboxamide [Compound 13g]
IC50 ([1]; 72 h, Table 2): > 100 µM
IC50 ([2]; Table 2): > 100 µM
IC50 ([3]; 72 h, Table 2): > 100 µM

melting point: 235 to 236.7 °C
Molecule: O=C(Nc1ccc(-c2nc3c(c(N4CCOCC4)n2)CSCC3)cc1)c1cc(-c2ccc(F)cc2F)ccn1 [Compound 11c, N-(4-(4-Morpholino-7,8-dihydro-5H-thiopyrano[4,3-d]pyrimidin-2-yl)phenyl)-4-(2,4-difluorophenyl) picolinamide]

melting point: 235.3 to 236.2 °C
Molecule: O=C(Nc1ccc(-c2nc3c(c(N4CCOCC4)n2)CSCC3)cc1)c1cc(-c2ccc(Cl)cc2)ccn1 [Compound 11e, N-(4-(4-Morpholino-7,8-dihydro-5H-thiopyrano[4,3-d]pyrimidin-2-yl)phenyl)-4-(4-chlorophenyl)pyridine amide]
IC50 [1, 6]: 19.3 ± 0.86 µM
IC50 ([2]; Homo sapiens, Table 1): 23.2 ± 0.76 µM
IC50 [3, 7]: 20.9 ± 1.02 µM

melting point: 294.2 to 296.6 °C
Molecule: O=C(Nc1ccc(-c2nc3c(c(N4CCOCC4)n2)CS(=O)(=O)CC3)cc1)c1cc(-c2ccccc2)ncn1 [Compound 14g]
IC50 [1, 4]: > 100 µM
IC50 ([2]; Homo sapiens, Table 2): > 100 µM
IC50 [3, 5]: > 100 µM

melting point: 266.8 to 268.8 °C
Molecule: O=C(Nc1ccc(-c2nc3c(c(N4CCOCC4)n2)CS(=O)(=O)CC3)cc1)c1cc(-c2ccc(Cl)cc2)ccn1 [Compound 12e, N-(4-(4-Morpholino-7,8-dihydro-6,6-dioxide-5H-thiopyrano[4,3-d]pyrimidin-2-yl)phenyl)-4-(4-chloro-phenyl) pyridinecarboxamide]

melting point: 290.2 to 293.1 °C
Molecule: Cc1ccc(-c2ccnc(C(=O)Nc3ccc(-c4nc5c(c(N6CCOCC6)n4)CS(=O)(=O)CC5)cc3)c2)cc1 [Compound 12g, N-(4-(4-Morpholino-7,8-dihydro-6,6-dioxide-5H-thiopyrano[4,3-d]pyrimidin-2-yl)phenyl)-4-(4-methylphenyl) pyridinecarboxamide]
IC50 [1, 6]: 14.51 ± 0.1 µM
IC50 ([2]; Homo sapiens, Table 1): 64.71 ± 0.17 µM
IC50 [3, 7]: 28.9 ± 1.29 µM

melting point: > 300 °C
Molecule: O=C(Nc1ccc(-c2nc3c(c(N4CCOCC4)n2)CS(=O)(=O)CC3)cc1)c1cc(-c2ccc(F)cc2)ccn1 [Compound 12f, N-(4-(4-Morpholino-7,8-dihydro-6,6-dioxide-5H-thiopyrano[4,3-d]pyrimidin-2-yl)phenyl)-4-(4-fluoro-phenyl) pyridincarboxamide]

Molecule: CS(=O)(=O)N1CCN(Cc2cc3nc(-c4cccc5[nH]ncc45)nc(N4CCOCC4)c3s2)CC1 [GDC-0941, reference compound]
IC50 [1, 6]: 6.99 ± 0.21 µM
IC50 ([2]; Homo sapiens, Table 1): 0.2 ± 0.08 µM
IC50 [3, 7]: 0.07 ± 0.03 µM

melting point: 269 to 272.6 °C
Molecule: O=C(Nc1ccc(-c2nc3c(c(N4CCOCC4)n2)CS(=O)(=O)CC3)cc1)c1cc(-c2ccc(F)cc2F)ccn1 [Compound 12c, N-(4-(4-Morpholino-7,8-dihydro-6,6-dioxide-5H-thiopyrano[4,3-d]pyrimidin-2-yl)phenyl)-4-(2,4-difluorophenyl) picolinamide]

melting point: 237 to 239.3 °C
Molecule: O=C(Nc1ccc(-c2nc3c(c(N4CCOCC4)n2)CSCC3)cc1)c1cc(-c2ccc(F)cc2)ncn1 [Compound 13d]
IC50 [1, 4]: > 100 µM
IC50 ([2]; Homo sapiens, Table 2): > 100 µM
IC50 [3, 5]: > 100 µM

melting point: 229 to 233.8 °C
Molecule: O=C(Nc1ccc(-c2nc3c(c(N4CCOCC4)n2)CS(=O)(=O)CC3)cc1)c1cc(-c2ccccc2)ccn1 [Compound 12a, N-(4-(4-Morpholino-7,8-dihydro-6,6-dioxide-5H-thiopyrano[4,3-d]pyrimidin-2-yl)phenyl)-4-phenylpyridine Amide]
IC50 ([2]; Homo sapiens, Table 1): 74.27 ± 0.08 µM

melting point: 229.3 to 231.7 °C
Molecule: O=C(Nc1ccc(-c2nc3c(c(N4CCOCC4)n2)CSCC3)cc1)c1cc(-c2ccc(C(F)(F)F)cc2)ccn1 [Compound 11d, N-(4-(4-Morpholino-7,8-dihydro-5H-thiopyrano[4,3-d]pyrimidin-2-yl)phenyl)-4-(4-trifluoromethylphenyl) picolinamide]
IC50 [1, 6]: 43.46 ± 0.12 µM
IC50 [3, 7]: 50.3 ± 2.18 µM

melting point: 277 to 279.5 °C
Molecule: COc1ccc(-c2cc(C(=O)Nc3ccc(-c4nc5c(c(N6CCOCC6)n4)CS(=O)(=O)CC5)cc3)ncn2)cc1 [Compound 14b]
IC50 [1, 4]: > 100 µM
IC50 ([2]; Homo sapiens, Table 2): > 100 µM
IC50 [3, 5]: 89.6 ± 0.91 µM

melting point: > 300 °C
Molecule: O=C(Nc1ccc(-c2nc3c(c(N4CCOCC4)n2)CS(=O)(=O)CC3)cc1)c1cc(-c2ccc(Br)cc2)ncn1 [Compound 14e]
IC50 [1, 4]: > 100 µM
IC50 ([2]; Homo sapiens, Table 2): > 100 µM
IC50 [3, 5]: 27.4 ± 1.27 µM

melting point: 289 to 292.1 °C
Molecule: COc1ccc(-c2ccnc(C(=O)Nc3ccc(-c4nc5c(c(N6CCOCC6)n4)CS(=O)(=O)CC5)cc3)c2)cc1 [Compound 12i, N-(4-(4-Morpholino-7,8-dihydro-6,6-dioxide-5H-thiopyrano[4,3-d]pyrimidin-2-yl)phenyl)-4-(4-methoxy-phenyl) pyridinecarboxamide]

melting point: > 300 °C
Molecule: O=C(Nc1ccc(-c2nc3c(c(N4CCOCC4)n2)CS(=O)(=O)CC3)cc1)c1cc(-c2ccc(C(F)(F)F)cc2)ccn1 [Compound 12d, N-(4-(4-Morpholino-7,8-dihydro-6,6-dioxide-5H-thiopyrano[4,3-d]pyrimidin-2-yl)phenyl)-4-(4-trifluoro-methylphenyl) pyridinecarboxamide]

melting point: 281.8 to 285 °C
Molecule: O=C(Nc1ccc(-c2nc3c(c(N4CCOCC4)n2)CSCC3)cc1)c1cc(-c2ccc(Cl)cc2)ncn1 [Compound 13f]
IC50 [1, 4]: > 100 µM
IC50 ([2]; Homo sapiens, Table 2): > 100 µM
IC50 [3, 5]: > 100 µM

melting point: 248.1 to 249.6 °C
Molecule: O=C(Nc1ccc(-c2nc3c(c(N4CCOCC4)n2)CSCC3)cc1)c1cc(-c2ccc(F)cc2)ccn1 [Compound 11f, N-(4-(4-Morpholino-7,8-dihydro-5H-thiopyrano[4,3-d]pyrimidin-2-yl)phenyl)-4-(4-fluorophenyl)pyridine amide]

melting point: 233.6 to 235.1 °C
Molecule: COc1ccc(-c2ccnc(C(=O)Nc3ccc(-c4nc5c(c(N6CCOCC6)n4)CSCC5)cc3)c2)cc1 [Compound 11i, N-(4-(4-Morpholino-7,8-dihydro-5H-thiopyrano[4,3-d]pyrimidin-2-yl)phenyl)-4-(4methoxyphenyl) pyridine-carboxamide]
IC50 [1, 6]: 27.68 ± 0.1 µM
IC50 ([2]; Homo sapiens, Table 1): 65.66 ± 0.61 µM
IC50 [3, 7]: 32.4 ± 1.84 µM

melting point: 244.2 to 245.8 °C
Molecule: O=C(Nc1ccc(-c2nc3c(c(N4CCOCC4)n2)CSCC3)cc1)c1cc(-c2ccc(C(F)(F)F)cc2)ncn1 [Compound 13c]
IC50 [1, 4]: > 100 µM
IC50 ([2]; Homo sapiens, Table 2): > 100 µM
IC50 [3, 5]: > 100 µM

melting point: 229.8 to 232.1 °C
Molecule: CCc1ccc(-c2ccnc(C(=O)Nc3ccc(-c4nc5c(c(N6CCOCC6)n4)CSCC5)cc3)c2)cc1 [Compound 11h, N-(4-(4-Morpholino-7,8-dihydro-5H-thiopyrano[4,3-d]pyrimidin-2-yl)phenyl)-4-(4-ethylphenyl) picolinamide]

melting point: 275 to 276.8 °C
Molecule: Cc1ccc(-c2ccnc(C(=O)Nc3ccc(-c4nc5c(c(N6CCOCC6)n4)CSCC5)cc3)c2)cc1 [Compound 11g, N-(4-(4-Morpholino-7,8-dihydro-5H-thiopyrano[4,3-d]pyrimidin-2-yl)phenyl)-4-(4-methylphenyl) picolinamide]

melting point: 236.5 to 238.4 °C
Molecule: O=C(Nc1ccc(-c2nc3c(c(N4CCOCC4)n2)CSCC3)cc1)c1cc(-c2cccc(F)c2)ccn1 [Compound 11b, N-(4-(4-Morpholino-7,8-dihydro-5H-thiopyrano[4,3-d]pyrimidin-2-yl)phenyl)-4-(3-fluorophenyl)pyridine amide]
IC50 [1, 6]: 48.08 ± 0.13 µM
IC50 ([2]; Homo sapiens, Table 1): 60.3 ± 1.24 µM
IC50 [3, 7]: 51.7 ± 1.56 µM

melting point: 251.8 to 255 °C
Molecule: O=C(Nc1ccc(-c2nc3c(c(N4CCOCC4)n2)CSCC3)cc1)c1cc(-c2ccc(Br)cc2)ncn1 [Compound 13e]
IC50 [1, 4]: > 100 µM
IC50 ([2]; Homo sapiens, Table 2): > 100 µM
IC50 [3, 5]: > 100 µM
